These results are taken from US20020161528A1, “Tool for lipophilicity determination in drug discovery basic and neutral compounds” (Pfizer Inc., priority 2001, published 2002).

The nature of series [1]: physchem. The note with it: pH 7.4.
The conditions of series [2]: for log k′w: pH 7.4.
Series [3] can be described thus: Reference logDoct at pH 7.4: literature shake-flask or countercurrent data, shake-vial and pH-metric determinations, averaged.
The conditions of series [4]: cited from earlier work.
Series [5] in a line: Shake-vial logDoct, Procedure A (octanol / MOPS buffer). The class given is physicochemical. The note with it: concentration decreased from 1.5 to 0.1 mg, 50:2 octanol:buffer. The text has this:
(§1) The vials were shaken at least overnight.

Series [6] can be described thus: Semi-automated shake-vial logDoct, Procedure B (1:1 n-octanol / phosphate buffer pH 7.4). It counts as physicochemical. The note with it: duplicate determinations.
From the text: as §1

Setting [7] is: Table 1, capacity factor extrapolated to 0% methanol, average of three to five determinations.
Setting [8] is: Table 1, average of own shake-vial/potentiometric determinations and literature references.
Setting [9] is: Table 1, own shake-vial (Procedure A/B) and/or potentiometric determinations only.
Setting [10] is: Table 1, average of literature references only, pH 7.4.

“And” between values parts separate entries of the source, which are not always exact repeats. Equal entries are not always repeated. Structures can show the parent of a compound that is named as a salt. Where two headings read alike, the source gives them in different places.

Regarding `Oc1ncnc2[nH]ncc12` [Allopurinol], the chromatographic logD in series [1] is -0.1. The “log k′w” value in series [2] (setting [7]) is recorded as −0.27. This compound showed a logDoct in series [3] (setting [8]) of −0.44.

As to `CN/C(=N/CCSCc1nc[nH]c1C)NC#N` [Cimetidine], the “log k′w” value in series [2] (setting [7]) was 0.17. Also, in series [3] (setting [9]), the logDoct is on record as 0.35.

`NS(=O)(=O)c1cc2c(cc1Cl)NC(C1CC3C=CC1C3)NS2(=O)=O` (stereo not drawn) [Cyclothiazide] came in with a chromatographic logD in series [1] of 2.63. Also, the “log k′w” value in series [2] (setting [7]) was 2.15. In series [3] (setting [9]), this compound yielded a logDoct of 2.09.

In turn, `COc1ccc([C@@H]2Sc3ccccc3N(CCN(C)C)C(=O)[C@@H]2OC(C)=O)cc1` [Diltiazem] came in with a chromatographic logD in series [1] of 2. The “log k′w” value in series [2] (setting [7]) is reported as 1.59. Besides, the logDoct in series [3] (setting [9]) turned out to be 2.06.

`CC(C)N(CCC(C(N)=O)(c1ccccc1)c1ccccn1)C(C)C` (stereo not drawn) [Disopyramide] yielded a chromatographic logD in series [1] of -1.15. Moreover, the “log k′w” value in series [2] (setting [7]) was −1.21. The logDoct in series [3] (setting [9]) is −0.66.

`COc1ccc2c(c1)N(C[C@H](C)CN(C)C)c1ccccc1S2` [Methotrimeprazine] had a chromatographic logD in series [1] of 2.57. Further, the “log k′w” value in series [2] (setting [7]) was 2.10. In series [3] (setting [9]), the logDoct was found to be 2.77.

`CN1CCCC1c1cccnc1` (stereo not drawn) [Nicotine] gave a chromatographic logD in series [1] of 0.23. For the same compound, the “log k′w” value in series [2] was found to be 0.02. The logDoct in series [3] (setting [9]) amounted to 0.40.

As to `CN1CCN(CC(=O)N2c3ccccc3C(=O)Nc3cccnc32)CC1` [Pirenzepine], in series [1], the chromatographic logD was determined as 0.04. Also, the “log k′w” value in series [2] (setting [7]) is reported as −0.15. The same compound had a logDoct in series [3] (setting [9]) of −0.61.

For `CNC(=C[N+](=O)[O-])NCCSCc1ccc(CN(C)C)o1` [Ranitidine], the chromatographic logD in series [1] was -0.5. In series [3] (setting [9]), this compound registered a logDoct of −0.29.

As to `CNS(=O)(=O)Cc1ccc2[nH]cc(CCN(C)C)c2c1` [Sumatriptan], the chromatographic logD in series [1] was -0.4. Also, in series [2] (setting [7]), the “log k′w” value is listed as −0.54. This compound showed a logDoct in series [3] (setting [8]) of −1.00.

Turning to `CC(C)(C)NCC(O)c1cc(O)cc(O)c1` (stereo not drawn) [Terbutaline sulfate], the chromatographic logD in series [1] is -1.49. For the same compound, in series [2] (setting [7]), the “log k′w” value is listed as −1.51. Moreover, the logDoct in series [4] (setting [10]) was −1.35.

As for `CCCCNc1ccc(C(=O)OCCN(C)C)cc1` [Tetracaine], in series [1], the chromatographic logD was found to be 2.12. In series [2] (Table 1), the “Res (logDoct − ElogDoct)” value is recorded as 0.17. Further, the “log k′w” value in series [2] (setting [7]) is 1.70. Besides, in series [4] (setting [10]), the logDoct is 2.29.

Consider `CS(=O)(=O)c1ccc([C@@H](O)[C@@H](CO)NC(=O)C(Cl)Cl)cc1` [Thiamphenicol], for which the chromatographic logD in series [1] amounted to 0.15. In addition, the “log k′w” value in series [2] (setting [7]) is listed as −0.05. Further, the logDoct in series [4] (setting [10]) was −0.27.

`CCN(CC)CCNC(=O)c1cc(S(C)(=O)=O)ccc1OC` [Tiapride] displayed a chromatographic logD in series [1] of -0.45. Moreover, the “log k′w” value in series [2] (setting [7]) was −0.58. In series [3] (setting [9]), the logDoct is reported as −0.90.

On to `CNC(=NCCSCc1csc(N=C(N)N)n1)NC#N` [Tiotidine], for which the chromatographic logD in series [1] amounted to 0.85. For the same compound, the “log k′w” value in series [2] (setting [7]) was 0.57. Besides, the logDoct in series [3] (setting [9]) is given as 0.57.

`O=c1n(CCCN2CCN(c3cccc(Cl)c3)CC2)nc2ccccn12` [Trazodone] had a chromatographic logD in series [1] of 2.97. In addition, in series [2] (setting [7]), the “log k′w” value was 2.45. Moreover, the logDoct in series [3] (setting [9]) is 2.54.

`NS(=O)(=O)c1cc2c(cc1Cl)NC(C(Cl)Cl)NS2(=O)=O` (stereo not drawn) [Trichlormethiazide]: the chromatographic logD in series [1] stood at 0.5. Further, the “log k′w” value in series [2] (setting [7]) is listed as 0.26. This compound also displayed a logDoct in series [3] (setting [9]) of 0.43.

Compound `Cc1ncc(-c2csc(N=C(N)N)n2)[nH]1` [Zaltidine] returned a chromatographic logD in series [1] of 0.8. Moreover, in series [2] (setting [7]), the “log k′w” value is given as 0.53. This compound yielded a logDoct in series [3] (setting [9]) of 0.74.

As to `N=C(N)NCC1COc2ccccc2O1` (stereo not drawn) [guanoxan], in series [1], the chromatographic logD is -0.3. The logDoct in series [5] is −1.6 to −1.0; in series [6] it was −0.1 and −0.3; in series [4] (literature value (ref. 22)) it was −0.83.

Broadly, the chromatographic logD is lipophilicity estimated from chromatographic retention.
